Reference: patent publication US20240158370A1, “CK1 alpha AND DUAL CK1 alpha / GSPT1 DEGRADING COMPOUNDS” (Innovo Therapeutics, Inc., priority 2022, published 2024)

Experiments:
[1] = target: T1, CK1α (Homo sapiens, UniProt P48729+Q96SW2); assay: HiBiT degradation assay, CK1α, Procedure A; type: cell-based; conditions: six hours
T1 construct: CSNK1A1-HiBit KI HEK293(LgBit) Cells; host or cells: HEK293(LgBit) knock-in cells
Outline: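 Cells in DMEM + 10% FBS were treated with compound in a ten-point dose response from 10 μM to 0.005 μM (0.1% DMSO) for six hours at 37° C. Lysis with Nano-Glo HiBiT detection reagent followed, with luminescence read. DC50 and Ymin came from a 4-parameter fit.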

[2] = target: GSPT1 (Homo sapiens, UniProt P15170+Q96SW2); assay: HiBiT degradation assay, GSPT1, Procedure B (Molt 4_hGSPT1_HiBIT cells); type: cell-based; set-up: Molt 4_hGSPT1_HiBIT N-terminus tagged cells were generated using CRISPR technology; endogenous in cells; host or cells: Molt 4 cells, CRISPR-edited; conditions: six hours
Sequence of GSPT1 (P15170 whole entry): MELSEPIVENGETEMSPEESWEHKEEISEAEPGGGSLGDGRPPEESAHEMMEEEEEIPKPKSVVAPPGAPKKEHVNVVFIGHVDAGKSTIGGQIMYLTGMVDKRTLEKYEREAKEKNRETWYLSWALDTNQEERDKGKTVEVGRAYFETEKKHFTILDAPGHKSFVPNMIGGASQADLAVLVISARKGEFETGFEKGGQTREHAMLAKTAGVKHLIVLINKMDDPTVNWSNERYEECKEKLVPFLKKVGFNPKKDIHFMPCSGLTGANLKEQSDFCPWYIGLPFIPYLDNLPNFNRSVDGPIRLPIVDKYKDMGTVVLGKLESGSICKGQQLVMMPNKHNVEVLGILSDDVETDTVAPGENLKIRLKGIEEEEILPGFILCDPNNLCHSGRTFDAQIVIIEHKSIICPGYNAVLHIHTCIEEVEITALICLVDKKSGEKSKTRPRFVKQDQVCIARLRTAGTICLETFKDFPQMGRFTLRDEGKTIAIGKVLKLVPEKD
Sequence of GSPT1 (Q96SW2 whole entry): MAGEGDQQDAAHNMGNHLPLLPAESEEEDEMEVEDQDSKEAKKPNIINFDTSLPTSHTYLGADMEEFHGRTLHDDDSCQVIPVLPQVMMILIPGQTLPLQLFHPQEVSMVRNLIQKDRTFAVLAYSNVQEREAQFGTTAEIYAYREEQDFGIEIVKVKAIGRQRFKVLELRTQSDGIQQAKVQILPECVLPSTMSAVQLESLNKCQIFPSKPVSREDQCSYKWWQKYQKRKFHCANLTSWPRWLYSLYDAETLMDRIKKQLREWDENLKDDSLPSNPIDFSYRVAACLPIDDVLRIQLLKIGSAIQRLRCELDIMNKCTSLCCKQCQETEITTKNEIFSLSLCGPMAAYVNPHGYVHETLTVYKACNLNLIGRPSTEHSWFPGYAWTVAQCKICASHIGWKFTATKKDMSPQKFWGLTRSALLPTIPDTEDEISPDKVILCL
Sequence of GSPT1 (Q16531 whole entry partner): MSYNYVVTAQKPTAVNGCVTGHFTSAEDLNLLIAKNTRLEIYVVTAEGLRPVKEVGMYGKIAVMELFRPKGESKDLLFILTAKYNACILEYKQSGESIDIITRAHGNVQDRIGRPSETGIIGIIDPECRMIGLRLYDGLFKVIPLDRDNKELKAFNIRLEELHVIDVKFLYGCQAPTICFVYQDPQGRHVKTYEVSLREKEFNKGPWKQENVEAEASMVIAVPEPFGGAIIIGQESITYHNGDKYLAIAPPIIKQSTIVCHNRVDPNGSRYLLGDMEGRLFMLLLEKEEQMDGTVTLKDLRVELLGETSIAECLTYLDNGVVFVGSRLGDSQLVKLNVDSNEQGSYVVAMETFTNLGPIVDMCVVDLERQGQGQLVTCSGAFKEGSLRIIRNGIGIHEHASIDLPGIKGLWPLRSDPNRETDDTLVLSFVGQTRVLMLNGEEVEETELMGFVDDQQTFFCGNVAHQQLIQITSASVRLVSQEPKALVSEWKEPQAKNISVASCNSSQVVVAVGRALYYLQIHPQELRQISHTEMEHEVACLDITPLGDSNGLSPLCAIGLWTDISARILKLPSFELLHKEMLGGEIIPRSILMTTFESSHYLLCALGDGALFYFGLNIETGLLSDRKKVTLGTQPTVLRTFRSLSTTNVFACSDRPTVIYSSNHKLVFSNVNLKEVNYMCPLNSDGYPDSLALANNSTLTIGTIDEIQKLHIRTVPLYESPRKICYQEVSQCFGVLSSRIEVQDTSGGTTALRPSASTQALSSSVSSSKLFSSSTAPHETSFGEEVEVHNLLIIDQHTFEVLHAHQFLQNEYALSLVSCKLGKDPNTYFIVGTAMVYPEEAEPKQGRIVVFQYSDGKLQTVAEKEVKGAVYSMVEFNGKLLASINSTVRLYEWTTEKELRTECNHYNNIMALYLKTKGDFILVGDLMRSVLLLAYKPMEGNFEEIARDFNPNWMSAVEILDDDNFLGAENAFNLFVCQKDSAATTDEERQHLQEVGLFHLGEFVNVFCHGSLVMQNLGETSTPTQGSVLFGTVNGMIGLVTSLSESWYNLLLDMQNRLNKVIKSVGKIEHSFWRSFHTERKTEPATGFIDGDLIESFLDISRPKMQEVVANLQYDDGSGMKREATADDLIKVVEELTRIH
Description: Molt 4_hGSPT1_HiBIT N-terminus tagged cells were generated using CRISPR technology. Cells were maintained in RPMI media (Thermo Fisher Scientific, Catalog #11875-093) containing 10% Fetal Bovine Serum (Thermo Fisher Scientific, Catalog #16140071) 1% Penicillin-Streptomycin (Thermo Fisher Scientific, Catalog #25200056). Cells were maintained at 37° C. in a 5% CO2 environment.
Compounds were spotted onto Cornin 384-Well, Cell Culture-Treated, Flat-Bottom, Low Flange Microplate (Fisher Scientific, Catalog #07-201-013) using a Tecan D300e digital dispenser. Ten-point dose response curves spanning from 10 μM to 0.005 μM with a 0.1% DMSO tolerance were used.
Cells were centrifuged for 5 minutes at 1200 RPMs. Cell culture media was aspirated off and cells were resuspended with RPMI+10% FBS. Cell density was determined using a Denovix CellDrop BF cell counter. Cell density was adjusted to 1×10^6 cells/ml. 40 μl of cells was added to compound treated tissue culture plates and incubated for six hours at 37° C. After six hours, cell culture plates were removed from tissue culture incubator and cooled to room temperature. 40 μl of Nano-GloHiBiT Lytic Detection Reagent (Promega, Catalog #N3040) was added to each well. Plates were placed on an orbital shaker (600 rpm) for 20 minutes. Luminescence was measured using an Envsion plate reader (Perkin Elmer). IC50 curves and Ymin were generated using a 4-parameter curve fit with GraphPad Prism software (Prism Corporation).
Results from the HiBiT assay (DC50 (nM) and Ymin (% remaining)) are shown below. All CK1α data was generated according to Procedure A. GSPT1 data for Examples 1-600, 603-620 and 703-705 was generated according to Procedure A. GSPT1 data for Examples 601, 621-702 and 706-735 was generated according to Procedure B.

T1 sequence (P48729 whole entry): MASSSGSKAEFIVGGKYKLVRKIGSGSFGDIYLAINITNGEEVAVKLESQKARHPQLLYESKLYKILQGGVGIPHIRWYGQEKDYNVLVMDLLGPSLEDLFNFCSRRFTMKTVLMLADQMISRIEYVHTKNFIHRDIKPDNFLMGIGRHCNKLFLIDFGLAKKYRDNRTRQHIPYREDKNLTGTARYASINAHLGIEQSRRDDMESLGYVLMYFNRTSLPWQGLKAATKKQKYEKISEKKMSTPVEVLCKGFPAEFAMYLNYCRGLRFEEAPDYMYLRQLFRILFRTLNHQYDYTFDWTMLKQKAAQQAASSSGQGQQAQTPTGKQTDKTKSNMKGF
T1 sequence (Q96SW2 whole entry): as the sequence (Q96SW2 whole entry) above
T1 sequence (Q16531 whole entry partner): as the sequence (Q16531 whole entry partner) above

Row | CK1α Ymin [1] | DC50 [1] | DC50 [2] | GSPT1 Ymin [2] | SMILES
1 | E (E = >25-75% remaining) | ≥ 25 nM | < 25 nM | F (F = >75-100% remaining) | Cn1cc(-c2ccc3c(c2)CN(C2CCC(=O)NC2=O)C3=O)nc1-c1ccc2c(c1)CCC(=O)N2 (stereo not shown) [Example 678]
2 | D (D = >10- 25% remaining) | < 25 nM | ≥ 25 nM | F (F = >75-100% remaining) | Cn1cc(-c2ccc3c(c2)CN(C2CCC(=O)NC2=O)C3=O)nc1-c1nn(C)c2ccccc12 (stereo not shown) [Example 679]
3 | C (C = 0-10% remaining) | < 25 nM | ≥ 25 nM | E (E = >25-75% remaining) | Cn1cc(-c2ccc3c(c2)CN(C2CCC(=O)NC2=O)C3=O)nc1-c1ccc2c(c1)OCO2 (stereo not shown) [Example 680]
4 | C (C = 0-10% remaining) | < 25 nM | < 25 nM | D (D = >10- 25% remaining) | Cn1cc(-c2ccc3c(c2)CN(C2CCC(=O)NC2=O)C3=O)nc1-c1cccc(OCc2ccccc2)c1 (stereo not shown) [Example 681]
5 | C (C = 0-10% remaining) | < 25 nM | < 25 nM | F (F = >75-100% remaining) | Cn1cc2cc(-c3nc(-c4ccc5c(c4)CN(C4CCC(=O)NC4=O)C5=O)cn3C)ccc2n1 (stereo not shown) [Example 682]
6 | E (E = >25-75% remaining) | < 25 nM | < 25 nM | F (F = >75-100% remaining) | COc1ccc(C#N)cc1-c1nc(-c2ccc3c(c2)CN(C2CCC(=O)NC2=O)C3=O)cn1C (stereo not shown) [Example 684]
7 | C (C = 0-10% remaining) | < 25 nM | < 25 nM | F (F = >75-100% remaining) | Cn1cc(-c2ccc3c(c2)CN(C2CCC(=O)NC2=O)C3=O)nc1-c1ccnc2ccccc12 (stereo not shown) [Example 686]
8 | D (D = >10- 25% remaining) | < 25 nM | < 25 nM | F (F = >75-100% remaining) | CCCCc1ccc(-c2nc(-c3ccc4c(c3)CN(C3CCC(=O)NC3=O)C4=O)cn2C)s1 (stereo not shown) [Example 687]
9 | C (C = 0-10% remaining) | < 25 nM | < 25 nM | F (F = >75-100% remaining) | COc1ccc(Cl)c(-c2nc(-c3ccc4c(c3)CN(C3CCC(=O)NC3=O)C4=O)cn2C)c1 (stereo not shown) [Example 688]
10 | C (C = 0-10% remaining) | < 25 nM | ≥ 25 nM | F (F = >75-100% remaining) | Cn1cc(-c2ccc3c(c2)CN(C2CCC(=O)NC2=O)C3=O)nc1-c1cccc2c1CCC2 (stereo not shown) [Example 689]
11 | E (E = >25-75% remaining) | < 25 nM | ≥ 25 nM | F (F = >75-100% remaining) | Cn1ncc(-c2ccc3c(c2)CN(C2CCC(=O)NC2=O)C3=O)c1C1=CCCC1 (stereo not shown) [Example 691]
12 | E (E = >25-75% remaining) | < 25 nM | ≥ 25 nM | F (F = >75-100% remaining) | Cn1ncc(-c2ccc3c(c2)CN(C2CCC(=O)NC2=O)C3=O)c1C1=CCOCC1 (stereo not shown) [Example 693]
13 | E (E = >25-75% remaining) | ≥ 25 nM | ≥ 25 nM | F (F = >75-100% remaining) | Cn1ncc(-c2ccc3c(c2)CN(C2CCC(=O)NC2=O)C3=O)c1C1CCOCC1 (stereo not shown) [Example 694]
14 | E (E = >25-75% remaining) | < 25 nM | < 25 nM | F (F = >75-100% remaining) | Cn1ncc(-c2ccc3c(c2)CN(C2CCC(=O)NC2=O)C3=O)c1C1=COCCC1 (stereo not shown) [Example 695]
15 | E (E = >25-75% remaining) | < 25 nM | ≥ 25 nM | F (F = >75-100% remaining) | Cn1ncc(-c2ccc3c(c2)CN(C2CCC(=O)NC2=O)C3=O)c1C1=CCC(c2ccccc2)CC1 (stereo not shown) [Example 696]
16 | D (D = >10- 25% remaining) | < 25 nM | ≥ 25 nM | E (E = >25-75% remaining) | Cn1ncc(-c2ccc3c(c2)CN(C2CCC(=O)NC2=O)C3=O)c1C1=CCCCCC1 (stereo not shown) [Example 697]
17 | F (F = >75-100% remaining) | < 25 nM | ≥ 25 nM | F (F = >75-100% remaining) | Cn1ncc(-c2ccc3c(c2)CN(C2CCC(=O)NC2=O)C3=O)c1C1=CCC(F)(F)CC1 (stereo not shown) [Example 698]
18 | F (F = >75-100% remaining) | ≥ 25 nM | ≥ 25 nM | F (F = >75-100% remaining) | Cn1ncc(-c2ccc3c(c2)CN(C2CCC(=O)NC2=O)C3=O)c1C1CCC(F)(F)CC1 (stereo not shown) [Example 699]
19 | E (E = >25-75% remaining) | < 25 nM | < 25 nM | F (F = >75-100% remaining) | Cn1ncc(-c2ccc3c(c2)CN(C2CCC(=O)NC2=O)C3=O)c1C1=Cc2ccccc2C1 (stereo not shown) [Example 700]
20 | E (E = >25-75% remaining) | ≥ 25 nM | ≥ 25 nM | F (F = >75-100% remaining) | Cn1ncc(-c2ccc3c(c2)CN(C2CCC(=O)NC2=O)C3=O)c1C1=Cc2ccccc2CC1 (stereo not shown) [Example 701]
21 | E (E = >25-75% remaining) | ≥ 25 nM | ≥ 25 nM | F (F = >75-100% remaining) | Cn1ncc(-c2ccc3c(c2)CN(C2CCC(=O)NC2=O)C3=O)c1C1=CCN(CC(F)(F)F)CC1 (stereo not shown) [Example 702]
22 | D (D = >10- 25% remaining) | < 25 nM | ≥ 25 nM | F (F = >75-100% remaining) | Cn1nc(-c2ccc3c(c2)CN(C2CCC(=O)NC2=O)C3=O)nc1N1CCC(C(F)(F)F)CC1 (stereo not shown) [Example 707, 3-(5-(1-methyl-5-(4-(trifluoromethyl)piperidin-1-yl)-1H-1,2,4-triazol-3-yl)-1-oxoisoindolin-2-yl)piperidine-2,6-dione]
23 | D (D = >10- 25% remaining) | < 25 nM | ≥ 25 nM | F (F = >75-100% remaining) | C[C@H]1CCCCN1c1nc(-c2ccc3c(c2)CN(C2CCC(=O)NC2=O)C3=O)nn1C (stereo partly drawn) [Example 708, 3-(5-(1-methyl-5-((S)-2-methylpiperidin-1-yl)-1H-1,2,4-triazol-3-yl)-1-oxoisoindolin-2-yl)piperidine-2,6-dione]
24 | D (D = >10- 25% remaining) | < 25 nM | ≥ 25 nM | F (F = >75-100% remaining) | C[C@@H]1CCCCN1c1nc(-c2ccc3c(c2)CN(C2CCC(=O)NC2=O)C3=O)nn1C (stereo partly drawn) [Example 709, 3-(5-(1-methyl-5-((R)-2-methylpiperidin-1-yl)-1H-1,2,4-triazol-3-yl)-1-oxoisoindolin-2-yl)piperidine-2,6-dione]
25 | E (E = >25-75% remaining) | < 25 nM | ≥ 25 nM | F (F = >75-100% remaining) | Cn1cc(-c2ccc3c(c2)CN(C2CCC(=O)NC2=O)C3=O)nc1C12CC3CC(CC(C3)C1)C2 (stereo not shown) [Example 711, 3-[5-[2-(1-adamantyl)-1-methyl-imidazol-4-yl]-1-oxo-isoindolin-2-yl]piperidine-2,6-dione]
26 | D (D = >10- 25% remaining) | < 25 nM | < 25 nM | F (F = >75-100% remaining) | Cc1nc(-c2ccc3c(c2)CN(C2CCC(=O)NC2=O)C3=O)nn1-c1ccccc1 (stereo not shown) [Example 712, 3-(5-(5-methyl-1-phenyl-1H-1,2,4-triazol-3-yl)-1-oxoisoindolin-2-yl) piperidine-2,6-dione]

Row | SMILES | CK1α Ymin [1] | DC50 [1] | DC50 [2] | GSPT1 Ymin [2]
27 | Cn1ncc(-c2ccc3c(c2)CN(C2CCC(=O)NC2=O)C3=O)c1C1=CCNCC1 (stereo not shown) [Example 690] | E (E = >25-75% remaining) | ≥ 25 nM | ≥ 25 nM | F (F = >75-100% remaining)
28 | Cn1nc(-c2ccc3c(c2)CN(C2CCC(=O)NC2=O)C3=O)nc1N1[C@@H]2CCC[C@H]1CC2 (stereo partly drawn) [Example 706, 3-(5-(5-((1R,5S)-8-azabicyclo[3.2.1]octan-8-yl)-1-methyl-1H-1,2,4-triazol-3-yl)-1-oxoisoindolin-2-yl)piperidine-2,6-dione] | D (D = >10- 25% remaining) | < 25 nM | ≥ 25 nM | F (F = >75-100% remaining)
